Measurements from patent US8563714B2, “Bridged spiro [2.4] heptane derivatives as ALX receptor and/or FPRL2 agonists” (Actelion Pharmaceuticals Ltd., priority 2009, dated 2013).

Tests used:
human ALX receptor = molecular target: T1, human ALX receptor (Homo sapiens, UniProt P25090); experiment: Intracellular calcium measurements (FLIPR), agonistic activity in HEK293-hALXR-Gα16 cells; format: cell-based; settings: Fluo-4 calcium FLIPR, normalized to WKYMVm 10 nM
T1 construct: expressed in transfected cells; host or cells: HEK293 (HEK293-hALXR-Gα16)
T1 sequence (P25090 1-351): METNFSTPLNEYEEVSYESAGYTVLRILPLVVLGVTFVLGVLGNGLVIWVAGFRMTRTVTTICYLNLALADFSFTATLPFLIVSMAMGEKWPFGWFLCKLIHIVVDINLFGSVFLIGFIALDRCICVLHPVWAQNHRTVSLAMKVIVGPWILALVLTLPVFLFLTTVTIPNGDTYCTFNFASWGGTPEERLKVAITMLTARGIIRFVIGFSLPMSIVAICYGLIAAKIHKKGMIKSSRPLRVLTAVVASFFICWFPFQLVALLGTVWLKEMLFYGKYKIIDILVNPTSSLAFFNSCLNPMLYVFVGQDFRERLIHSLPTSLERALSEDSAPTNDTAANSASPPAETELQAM
How it was run: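 Agonist-induced calcium flux was recorded by FLIPR (488/540 nm) in HEK293-hALXR-Gα16 cells pre-loaded with Fluo-4 AM (1 μM, 60 min, 37°C). Peak signal above baseline, after subtracting buffer addition, was expressed relative to WKYMVm at 10 nM final.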

human FPRL2 = molecular target: T2, human FPRL2 (Homo sapiens, UniProt P25089); experiment: Intracellular calcium measurements (FLIPR), agonistic activity in HEK293-hFPRL2-Gα16 cells; format: cell-based; settings: Fluo-4 calcium FLIPR, normalized to GLY14-Humanin 100 nM
T2 construct: expressed in transfected cells; host or cells: HEK293 (HEK293-hFPRL2-Gα16)
T2 sequence (P25089 1-353): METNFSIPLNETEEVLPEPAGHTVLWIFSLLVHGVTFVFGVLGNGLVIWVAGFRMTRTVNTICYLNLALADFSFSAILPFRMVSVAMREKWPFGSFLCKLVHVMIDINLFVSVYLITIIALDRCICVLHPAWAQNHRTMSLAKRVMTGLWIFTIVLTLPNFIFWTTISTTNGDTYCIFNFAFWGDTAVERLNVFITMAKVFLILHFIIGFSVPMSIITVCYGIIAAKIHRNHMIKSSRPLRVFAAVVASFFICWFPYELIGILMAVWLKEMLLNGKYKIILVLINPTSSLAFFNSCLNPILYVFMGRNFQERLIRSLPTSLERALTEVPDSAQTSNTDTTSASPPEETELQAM
How it was run: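 Peak values after baseline subtraction are expressed relative to 100 nM Gly14-Humanin; compounds diluted in assay buffer from 10 mM DMSO stocks.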

EC50 (human ALX receptor)	EC50 (human FPRL2)	Structure (SMILES)
118 nM	3220 nM	Cc1ccncc1C(=O)NC[C@H]1[C@H](C(=O)Nc2ccc(Br)cc2)[C@@H]2C=C[C@H]1C21CC1 (racemic) [Example 171, (5R*)—N^5-(4-Bromo-phenyl)-(6R*)-6-{[(4-methyl-pyridine-3-carbonyl)-amino]-methyl}-(4S*,7R*)-[4,7-ethenylene-spiro[2.4]heptane]-5-carboxamide]
125 nM	4610 nM	CC(C)C(=O)NC[C@H]1[C@H](C(=O)Nc2ccc(Br)cc2)[C@@H]2C=C[C@H]1C21CC1 (racemic) [Example 172, (5R*)—N^5-(4-Bromo-phenyl)-(6R*)-6-[(isobutyrylamino)-methyl]-(4S*,7R*)-[4,7-ethenylene-spiro[2.4]heptane]-5-carboxamide]
131 nM	1820 nM	CCN1CCC(C(=O)NC[C@H]2[C@H](C(=O)Nc3ccc(Br)cc3)[C@@H]3C=C[C@H]2C32CC2)CC1 (racemic) [Example 173, (5R*)—N^5-(4-Bromo-phenyl)-(6R*)-6-{[(N-ethyl-piperidine-4-carbonyl)-amino]-methyl}-(4S*,7R*)-[4,7-ethenylene-spiro[2.4]heptane]-5-carboxamide]
136 nM	4810 nM	O=C(CCc1cccnc1)NC[C@H]1[C@H](C(=O)Nc2ccc(Br)cc2)[C@@H]2C=C[C@H]1C21CC1 (racemic) [Example 174, (5R*)—N^5-(4-Bromo-phenyl)-(6R*)-6-[(3-pyridin-3-yl-propionylamino)-methyl]-(4S*,7R*)-[4,7-ethenylene-spiro[2.4]heptane]-5-carboxamide]
155 nM	7210 nM	COCCC(=O)N(C)C[C@H]1[C@H](C(=O)Nc2ccc(Br)cc2)[C@@H]2C=C[C@H]1C21CC1 (racemic) [Example 175, (5R*)—N^5-(4-Bromo-phenyl)-(6R*)-6-{[N-(3-methoxy-propionyl)-N-methyl-amino]-methyl}-(4S*,7R*)-[4,7-ethenylene-spiro[2.4]heptane]-5-carboxamide]
158 nM	2230 nM	O=C(NC[C@H]1[C@H](C(=O)Nc2ccc(Br)cc2)[C@@H]2C=C[C@H]1C21CC1)c1cccc(F)c1Cl (racemic) [Example 176, (5R*)—N^5-(4-Bromo-phenyl)-(6R*)-6-{[(2-chloro-3-fluoro-phenyl-carbonyl)-amino]-methyl}-(4S*,7R*)-[4,7-ethenylene-spiro[2.4]heptane]-5-carboxamide]
160 nM	446 nM	O=C(CCCN1CCCC1)NC[C@H]1[C@H](C(=O)Nc2ccc(Br)cc2)[C@@H]2C=C[C@H]1C21CC1 (racemic) [Example 177, (5R*)—N^5-(4-Bromo-phenyl)-(6R*)-6-[(4-pyrrolidin-1-yl-butanoylamino)-methyl]-(4S*,7R*)-[4,7-ethenylene-spiro[2.4]heptane]-5-carboxamide]
115 nM	4070 nM	Cc1cc(C(=O)NC[C@H]2[C@H](C(=O)Nc3ccc(Br)cc3)[C@@H]3C=C[C@H]2C32CC2)nn1C (racemic) [Example 178, (5R*)—N^5-(4-Bromo-phenyl)-(6R*)-6-{[(1,5-dimethyl-1H-pyrazole-3-carbonyl)-amino]-methyl}-(4S*,7R*)-[4,7-ethenylene-spiro[2.4]heptane]-5-carboxamide]
200 nM	1380 nM	O=C(NC[C@H]1[C@H](C(=O)Nc2ccc(Br)cc2)[C@@H]2C=C[C@H]1C21CC1)C1CCCC1 (racemic) [Example 179, (5R*)—N^5-(4-Bromo-phenyl)-(6R*)-6-{[(cyclopentyl-carbonyl)-amino]-methyl}-(4S*,7R*)-[4,7-ethenylene-spiro[2.4]heptane]-5-carboxamide]
